{
  "source": "paper PMC9344893",
  "about": "(ACS Medicinal Chemistry Letters, 2022)",
  "key": {"SARS-CoV-2 Nsp14 MTase": {"target": "SARS-CoV-2 Nsp14 MTase (Severe acute respiratory syndrome coronavirus 2, UniProt P0DTD1)", "format": "biochemical"}, "panel of 10 human MTases": {"test_system": "panel of 10 human MTases", "test": "Human MTase screening, panel as a whole", "format": "biochemical", "details": "10 μM"}, "[1]": {"test_system": "SARS-CoV-2 isolate USA-WA1/2020"}, "A549/ACE2/TMPRSS2 cells": {"test_system": "A549/ACE2/TMPRSS2 cells", "test": "Cell viability assay", "format": "cell-based"}},
  "data": [
    {"smiles": "Nc1ncnc2c1ncn2[C@@H]1O[C@H](CNS(=O)(=O)c2ccc3ccccc3c2)[C@@H](O)[C@H]1O", "note": "[Compound 3]", "values": [
      {"measurement": "fold more active than compound 1", "setting": "SARS-CoV-2 Nsp14 MTase", "result": "> 150", "unit": "fold"},
      {"measurement": "inhibition of the set of human MTases (in words)", "setting": "panel of 10 human MTases", "result": "minimal inhibition"}
    ]},
    {"smiles": "Nc1ncnn2c([C@@H]3O[C@H](CNS(=O)(=O)c4ccc5ccccc5c4)[C@@H](O)[C@H]3O)ccc12", "note": "[Compound 10]", "values": [
      {"measurement": "therapeutic index (TI = CC50/EC50)", "setting": "[1]; A549 AT cells", "result": "greater than 139"}
    ]},
    {"smiles": "CC(=O)O[C@@H]1[C@H](OC(C)=O)[C@@H](CNS(=O)(=O)c2ccc3ccccc3c2)O[C@H]1n1cnc2c(N)ncnc21", "note": "[Compound 8]", "values": [
      {"measurement": "cytotoxicity at 100 μM (in words)", "setting": "A549/ACE2/TMPRSS2 cells", "result": "minimal cytotoxicity"}
    ]},
    {"smiles": "CC(=O)Nc1ncnc2c1ncn2[C@@H]1O[C@H](CNS(=O)(=O)c2ccc3ccccc3c2)[C@@H](OC(C)=O)[C@H]1OC(C)=O", "note": "[Compound 9]", "values": [
      {"measurement": "cytotoxicity at 100 μM (in words)", "setting": "A549/ACE2/TMPRSS2 cells", "result": "minimal cytotoxicity"}
    ]},
    {"smiles": "Nc1ncnc2c1ncn2[C@@H]1O[C@H](CNS(=O)(=O)c2ccc3nc(Cl)ccc3c2)[C@@H](O)[C@H]1O", "note": "[Compound 5]", "values": [
      {"measurement": "fold reduction in inhibitory activity", "setting": "SARS-CoV-2 Nsp14 MTase", "result": 7, "unit": "fold"}
    ]},
    {"smiles": "Nc1ncnc2c1ncn2[C@@H]1O[C@H](C[C@@H](N)CC[C@H](N)C(=O)O)[C@@H](O)[C@H]1O", "note": "[sinefungin, reference compound]", "values": [
      {"measurement": "antiviral activity (in words)", "setting": "[1]", "result": "failed to show any activity"}
    ]}
  ]
}
